Assays:
[1] = molecular target: T1, HCV NS3/4A protease complex, H77 strain (Hepatitis C virus genotype 1a, UniProt P27958, C1454S/C1711G); experiment: FRET peptide assay to monitor HCV NS3/4A proteolytic activity (H77 strain); assay type: biochemical, HCV genotype 1a; settings: read-out: IC50 against NS3/4A H77 strain
T1 construct: recombinant HCV NS3/4A protease complex (amino acids 1027 to 1711) for these strains; made in house; host or cells: Escherichia coli BL21 (DE3), pET21b
Text: (§1) HCV NS3 protease complexes, derived from the BMS strain, H77 strain or J4L6S strain, were generated, as described below. These purified recombinant proteins were generated for use in a homogeneous assay (see below) to provide an indication of how effective compounds of the present disclosure would be in inhibiting HCV NS3 proteolytic activity.
(§2) The H77 and J4L6S strains were used for production of recombinant NS3/4A protease complexes. DNA encoding the recombinant HCV NS3/4A protease complex (amino acids 1027 to 1711) for these strains were manipulated as described by P. Gallinari et al. (see Gallinari P, Paolini C, Brennan D, Nardi C, Steinkuhler C, De Francesco R. Biochemistry. 38(17):5620-32, (1999)). Briefly, a three-lysine solubilizing tail was added at the 3′-end of the NS4A coding region. The cysteine in the P1 position of the NS4A-NS4B cleavage site (amino acid 1711) was changed to a glycine to avoid the proteolytic cleavage of the lysine tag. Furthermore, a cysteine to serine mutation was introduced by PCR at amino acid position 1454 to prevent the autolytic cleavage in the NS3 helicase domain. […]

[2] = molecular target: T2, HCV NS3/4A protease complex, J4L6S strain (Hepatitis C virus genotype 1b, UniProt O92972, C1454S/C1711G); experiment: FRET peptide assay to monitor HCV NS3/4A proteolytic activity (J4L6S strain); assay type: biochemical, HCV genotype 1b; settings: read-out: IC50 against NS3/4A J4L6S strain
T2 construct: recombinant HCV NS3/4A protease complex (amino acids 1027 to 1711) for these strains; made in house; host or cells: Escherichia coli BL21 (DE3), pET21b
Text: as §1, §2

T1 sequence (P27958 1027-1711 C1454S/C1711G, one chain of several): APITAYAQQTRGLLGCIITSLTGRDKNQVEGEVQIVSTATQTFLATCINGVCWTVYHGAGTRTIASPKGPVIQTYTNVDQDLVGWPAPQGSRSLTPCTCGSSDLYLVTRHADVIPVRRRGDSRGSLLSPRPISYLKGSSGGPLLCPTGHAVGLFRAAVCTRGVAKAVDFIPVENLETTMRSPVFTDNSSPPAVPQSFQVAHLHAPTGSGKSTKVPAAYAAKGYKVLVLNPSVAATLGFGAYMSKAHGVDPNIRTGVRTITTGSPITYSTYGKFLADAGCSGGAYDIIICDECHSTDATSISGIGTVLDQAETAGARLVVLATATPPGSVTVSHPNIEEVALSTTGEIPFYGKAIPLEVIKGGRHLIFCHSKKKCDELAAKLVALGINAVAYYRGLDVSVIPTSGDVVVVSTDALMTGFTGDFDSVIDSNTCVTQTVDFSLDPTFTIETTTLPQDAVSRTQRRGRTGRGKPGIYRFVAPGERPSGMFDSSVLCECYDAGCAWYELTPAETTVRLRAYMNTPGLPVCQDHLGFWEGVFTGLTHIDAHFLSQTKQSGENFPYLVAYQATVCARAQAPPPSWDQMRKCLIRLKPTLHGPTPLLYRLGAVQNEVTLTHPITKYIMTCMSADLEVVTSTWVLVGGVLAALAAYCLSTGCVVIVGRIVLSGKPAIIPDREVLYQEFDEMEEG
T2 sequence (O92972 1027-1711 C1454S/C1711G, one chain of several): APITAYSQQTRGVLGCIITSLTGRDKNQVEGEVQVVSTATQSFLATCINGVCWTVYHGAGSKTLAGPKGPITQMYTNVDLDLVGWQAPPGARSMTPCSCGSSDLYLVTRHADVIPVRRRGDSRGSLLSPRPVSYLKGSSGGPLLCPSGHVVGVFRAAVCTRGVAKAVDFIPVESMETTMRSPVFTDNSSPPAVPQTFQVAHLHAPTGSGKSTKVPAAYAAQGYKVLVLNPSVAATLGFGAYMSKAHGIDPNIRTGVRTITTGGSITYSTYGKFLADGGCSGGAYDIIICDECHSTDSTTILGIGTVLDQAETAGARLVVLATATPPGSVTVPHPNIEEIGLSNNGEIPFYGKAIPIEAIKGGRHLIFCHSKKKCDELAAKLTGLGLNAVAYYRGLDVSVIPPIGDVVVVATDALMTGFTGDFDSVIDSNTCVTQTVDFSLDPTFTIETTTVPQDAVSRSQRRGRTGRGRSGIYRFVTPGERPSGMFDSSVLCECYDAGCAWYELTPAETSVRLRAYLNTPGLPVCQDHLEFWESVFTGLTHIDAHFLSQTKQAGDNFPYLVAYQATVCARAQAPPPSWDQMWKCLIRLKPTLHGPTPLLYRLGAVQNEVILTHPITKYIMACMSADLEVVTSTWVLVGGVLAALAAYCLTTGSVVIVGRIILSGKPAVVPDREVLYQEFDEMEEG

## COc1c(O[C@@H]2C[C@H]3C(=O)N[C@]4(C(=O)NS(=O)(=O)C5CC5)C[C@H]4/C=C\CCCCC[C@H](NC(=O)OC(C)(C)C)C(=O)N3C2)ccc2c(Cl)nccc12 [Compound 3]
[1]
  IC50: 600 pM
[2]
  IC50: 470 pM

Source: patent publication US20080107623A1, “Inhibitors of Hepatitis C Virus” (Bristol-Myers Squibb Company, priority 2006, published 2008)
